Test results published in patent publication US20220016101A1 (ACADIA Pharmaceuticals Inc., priority 2018, published 2022).
Values joined by “and” are separate entries in the source; they are usually repeats but may differ in a detail not shown here. Equal entries are not always repeated.

Tests used:
[1] = system: patients with MDD and an inadequate response to an SSRI or SNRI; assay: Safety and tolerability (adverse events), Study ACP-103-042
[2] = system: patients with MDD and an inadequate response to an SSRI or SNRI; assay: HAMD-17 total score, adjunctive pimavanserin in MDD (Study ACP-103-042); format: in vivo, human; conditions: for Response Rate: 50% or greater reduction on HAMD-17
Excerpt: “Hamilton Depression Scale 17-item (HAMD-17)” is a multiple item questionnaire used to provide an indication of depression, and is known to those skilled in the art. The questionnaire is designed for adults to rate the severity of depression by probing mood, feelings of guilt, suicide ideation, insomnia, work and interests, agitation or retardation, anxiety, weight loss, and somatic symptoms. Each item on the questionnaire is scored on a 3 or 5 point scale, depending on the item, and the total score is compared to the corresponding descriptor. A score of 0-7 is considered to be normal. Scores of 14 or higher indicate moderate, severe, or very severe depression. Assessment time is estimated at 20 minutes. […] Key endpoints were change from baseline to the end of each stage for the HAMD-17 total score and SDS score. The study consisted of an 8- to 21-day screening period, a 10-week double-blind treatment period, and a safety follow up period of up to 30 days. Screening assessments consisted of the SAFER Interview ([…] al, Harv Rev Psychiatry. 2013; 21(5):269-74), which included the MADRS, CGI-S, and MGH ATRQ. […] All patients continued on their SSRI or SNRI at a stable dose for the duration of the study. […] Inadequate treatment response was determined through the administration of the MGH ATRQ administered during the SAFER interview. […] Clinic visits occurred weekly from Weeks 1 through 10. The MADRS was administered at screening and baseline. The HAMD-17, SDS, CGI, and KSS were administered at baseline and weekly during the study. Other endpoints such as the SF-12 were administered at baseline and Weeks 5 and 10. Treatment response was defined as a reduction of 50% from baseline for the HAMD-17 total score, and remission was defined as a HAMD-17 total score […] The determination of the subject's status and eligibility for randomization in Stage 2 was made in a double-blind manner.

[3] = system: patients with MDD and an inadequate response to an SSRI or SNRI; assay: Karolinska Sleepiness Scale (KSS), MDD study; format: in vivo, human; conditions: Week 5 of Stage 1
Protocol: “Karolinska Sleepiness Scale (KSS)” is a scale for evaluating subjective sleepiness (Kaida et al. Clinical Neurophysiology 2006, 117, 7, 1574-1581).
Clinic visits occurred weekly from Weeks 1 through 10. The MADRS was administered at screening and baseline. The HAMD-17, SDS, CGI, and KSS were administered at baseline and weekly during the study. Other endpoints such as the SF-12 were administered at baseline and Weeks 5 and 10. Treatment response was defined as a reduction of 50% from baseline for the HAMD-17 total score, and remission was defined as a HAMD-17 total score

[4] = Stage 1, subgroup baseline anxiety/somatization subscale score ≥7
[5] = Stage 2, subgroup baseline anxiety/somatization subscale score ≥7

CC(C)COc1ccc(CNC(=O)N(Cc2ccc(F)cc2)C2CCN(C)CC2)cc1 [pimavanserin, N-(4-Fluorophenylmethyl)-N-(1-methylpiperidin-4-yl)-N′-(4-(2-methylpropyloxy)phenylmethyl)carbamide]
Discontinuations due to adverse events ([1]; 34 mg QD + SSRI/SNRI): 1.2% and 1.9%
rates of daytime sleepiness, weight gain, metabolic laboratory tests, and sexual dysfunction ([1]; 34 mg QD + SSRI/SNRI): low rates
tolerability ([1]; 34 mg QD + SSRI/SNRI): generally well-tolerated
tolerability ([1]; 34 mg QD + SSRI/SNRI, listed as Pimavanserin): well tolerated
subjects reporting serious adverse events ([1]; deemed not related to study drug): One subject
NNT for remission ([2]; Stage 1): 8.1
early improvement (reduction from baseline in HAMD-17 total score of 20% or more) vs placebo ([2]; Stage 1): early improvement at week 1 was observed
response and remission rates vs placebo ([2]; Stage 1, Week 2 through Week 5): significantly (p<0.05) greater
HAMD-17 total score LSmean (SE) change from baseline to Week 5 ([2]; Stage 1, 34 mg QD + SSRI/SNRI): −11.5 (0.94)
Remission Rate ([2]; Stage 1, 34 mg QD + SSRI/SNRI): 23.5%
HAMD-17 total score LSmean (SE) change from baseline to Week 5 ([2]; Stage 1, 34 mg QD + SSRI/SNRI, listed as Pimavanserin): −11.5
Response Rate ([2]; Stage 1, 34 mg QD + SSRI/SNRI): 52.9%
NNT for response ([2]; Stage 1, response = reduction of 50% from baseline HAMD-17 total score): 3.6
HAMD-17 total score Diff in LSM (SE) vs placebo [2, 4]: −6.6 (1.64)
HAMD-17 total score effect size (Cohen's d) [2, 4]: 0.940
HAMD-17 total score LSM (SE) Change from Baseline to Week 5 ([2]; Stage 1, subgroup baseline anxiety/somatization subscale score ≥7, 34 mg QD + SSRI/SNRI): −14.1 (1.39)
HAMD-17 total score effect size (Cohen's d) ([2]; Stage 1 Week 5, 34 mg QD + SSRI/SNRI): 0.626 and ~0.6
HAMD-17 total score effect size (Cohen's d) ([2]; Stage 1 Week 5, 34 mg QD + SSRI/SNRI, listed as Pimavanserin): 0.626
HAMD-17 total score LSM change from baseline to Week 5 ([2]; Stage 2 (placebo non-responders re-randomized), 34 mg QD + SSRI/SNRI): −2.8
HAMD-17 Cohen's d ([2]; Stage 2, 34 mg QD + SSRI/SNRI): −0.107
HAMD-17 difference between pimavanserin and placebo (delta) ([2]; Stage 2, 34 mg QD + SSRI/SNRI): 0.5
Remission Rate ([2]; Stage 2, 34 mg QD + SSRI/SNRI): 3.4%
Response Rate ([2]; Stage 2, 34 mg QD + SSRI/SNRI): 6.9%
HAMD-17 total score Diff in LSM (SE) vs placebo [2, 5]: 0.9 (1.84)
HAMD-17 total score effect size (Cohen's d) [2, 5]: −0.173
HAMD-17 total score LSM (SE) Change from Baseline to Week 5 ([2]; Stage 2, subgroup baseline anxiety/somatization subscale score ≥7, 34 mg QD + SSRI/SNRI): −3.4 (1.25)
HAMD-17 effect size, treatment difference in LSmean change from baseline to Week 10 ([2]; continuous treatment for 10 weeks in Stages 1 and 2, 34 mg QD + SSRI/SNRI): 0.497
HAMD-17 total LSmean difference [standard error] pimavanserin vs placebo ([2]; overall (weighted Stage 1 and Stage 2), 34 mg QD + SSRI/SNRI): -1.7 (0.85)
KSS effect size [3]: 0.627
KSS LSmean difference from baseline for pimavanserin vs. placebo ([3]; daytime sleepiness): −1.1 (0.30)
